# Literature values, collected in patent US9981895B1 (Parnative, Inc., priority 2015, dated 2018).
# Assays:
# [1] = TBARS assay; CPC-purified compounds; Abbott et al. 2010
# RAW 264.7 cell line = conditions: MTT assay, Abbott et al. 2010
# HeLa cell line = conditions: MTT assay, Abbott et al. 2010
Compound,dose at which oxidation was inhibited [1],concentration at which cytotoxicity was demonstrated (RAW 264.7 cell line),concentration at which cytotoxicity was demonstrated (HeLa cell line)
"5-RE)-2-(4-hydroxyphenyl) ethenyl]-2-[(1E)-2-phenylprop-1-en-1-yl]benzene-1,3-diol [arachidin-3]",14 µM,55 µM,55 µM
CC(C)/C=C/c1c(O)cc(/C=C/c2ccc(O)c(O)c2)cc1O [arachidin-1],7 µM,27 µM,27 µM
